This note sets out measurements from patent US8609650B2, “Bridged bicyclic aryl and bridged bicyclic heteroaryl substituted triazoles useful as Axl inhibitors” (Rigel Pharmaceuticals, Inc., priority 2006, dated 2013).

The target of this test is T1, Axl (Homo sapiens, UniProt P30530).
T1 construct: endogenous in cells; host or cells: HeLa cells
T1 sequence (P30530 26-894): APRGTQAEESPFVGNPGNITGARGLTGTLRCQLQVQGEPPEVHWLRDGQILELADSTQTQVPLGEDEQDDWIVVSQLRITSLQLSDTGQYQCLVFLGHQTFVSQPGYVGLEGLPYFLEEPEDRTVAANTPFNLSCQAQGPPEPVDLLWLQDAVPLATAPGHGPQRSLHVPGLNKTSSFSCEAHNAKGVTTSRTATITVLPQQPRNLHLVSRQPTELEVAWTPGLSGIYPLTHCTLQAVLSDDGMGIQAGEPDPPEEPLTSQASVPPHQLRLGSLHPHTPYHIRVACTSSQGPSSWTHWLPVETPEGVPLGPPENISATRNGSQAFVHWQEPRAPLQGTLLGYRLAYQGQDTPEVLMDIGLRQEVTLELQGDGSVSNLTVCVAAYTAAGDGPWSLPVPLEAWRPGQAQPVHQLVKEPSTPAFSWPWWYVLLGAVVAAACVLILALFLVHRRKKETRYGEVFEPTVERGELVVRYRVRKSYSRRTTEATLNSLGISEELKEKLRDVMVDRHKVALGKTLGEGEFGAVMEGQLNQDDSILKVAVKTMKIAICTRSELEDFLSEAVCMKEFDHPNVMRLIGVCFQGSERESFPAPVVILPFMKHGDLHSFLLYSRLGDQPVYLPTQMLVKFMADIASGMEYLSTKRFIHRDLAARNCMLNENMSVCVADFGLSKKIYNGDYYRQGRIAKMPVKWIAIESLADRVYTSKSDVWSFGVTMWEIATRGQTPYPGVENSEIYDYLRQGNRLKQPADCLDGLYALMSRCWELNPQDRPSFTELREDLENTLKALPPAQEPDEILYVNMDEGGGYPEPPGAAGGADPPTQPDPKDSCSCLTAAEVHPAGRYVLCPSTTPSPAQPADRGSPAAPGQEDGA
Kind of test: Phospho-Akt In-Cell Western Assay (ability to inhibit Axl activity). Particulars: Hela cells, stimulated by Axl-antibody cross-linking, phospho-Akt chemiluminescence normalized to relative cell number. Format: cell-based. As to the method:
The compounds of the invention were tested in the following assay for their ability to inhibit Axl activity.
Phospho-Akt In-Cell Western Assay
• Cell culture plate: 96 well assay plate (Corning 3610), white, clear bottom, tissue-culture treated. • Cells: Hela cells. • Starvation medium: For Axl stimulation: 0.5% FCS (fetal calf serum) in DMEM, plus Axl/Fc (extracellular domain of AXL fused to immunoglobulin Fc region) (R&D, 154-AL) 500 ng/mL. • For EGF (epidermal growth factor) stimulation: 0.5% FCS in DMEM (Dulbecco's modified Eagles medium). • Poly-L-Lysine 0.01% solution (the working solution): 10 μg/ml, dilute In PBS (phosphate buffered saline). • Axl antibody cross-linking: • 1st: Mouse anti-Axl (R&D, MAB154). • 2nd: Biotin-SP-conjugated AffiniPure goat anti-mouse IgG (H+L) (Jackson ImmunoResearch #115-065-003). • Fixing buffer: 4% formaldehyde in PBS. • Wash buffer: 0.1% TritonX-100 in PBS. • Quenching buffer: 3% H2O2, 0.1% Azide in wash buffer, Azide and hydrogen peroxide (H2O2) are added fresh. • Blocking buffer: 5% BSA in TBST (tris buffered saline plus 0.1% Tween 20). • Primary antibody: Rabbit anti-human Phospho-Akt antibody (Cell Signaling 9271): 1×250 diluted in blocking buffer. • Secondary antibody: HRP (horse radish peroxidase)-conjugated Goat anti-Rabbit secondary, stock solution: Jackson ImmunoResearch (Goat anti-Rabbit HRP, #111-035-144) 1:1 diluted in glycerol, store at −20° C. The working solution: 1×2000 dilution of stock in blocking buffer. • Chemiluminescent working solution (Pierce, 37030): SuperSignal ELISA (enzyme linked immunosorbant assay) Pico Chemiluminescent substrate. • Crystal Violet solution: Stock: 2.5% Crystal violet in methanol, filtered and kept at ambient temperature. The working solution: dilute the stock 1:20 with PBS immediately before use. • 10% SDS: working solution: 5% SDS (sodium dodecylsulfate), diluted in PBS Methods: Day 1:
A 96 well TC (tissue culture treated) plate was coated with 10 μg/mL poly-L-Lysine at 37° C. for 30 min, washed twice with PBS, and air-dried for 5 minutes before cells were added. Hela cells were seeded at 10,000 cells/well and the cells were starved in 100 μL starvation medium containing Axl/Fc for 24 hrs.
The cells were pre-treated with test compounds by adding 100 μL of 2× test compound to the starvation medium on the cells. The cells were incubated at 37° C. for 1 hr before stimulation.
The cells were stimulated by Axl-antibody cross-linking as follows: A 5×1st/2nd Axl antibody mixture was made (37.5 μg/mL 1st/100 μg/mL 2nd) in starvation medium and nutated at 4° C. with thorough mixing for 1-2 hours for clustering. The resulting mix was warmed to 37° C. 50 μL of 5× Axl 1st/2nd of antibody cluster was added to the cells and the cells were incubated at 37° C. for 5 min.
After 5 minutes stimulation, the plate was flicked to remove medium and the plate was tapped onto paper towels. Formaldehyde (4.0% in PBS, 100 μL) was added to fix the cells and the cells were incubated at ambient temperature for 20 min without shaking.
The cells were washed with a plate washer buffer to remove the formaldehyde solution. The plate was flicked to removed excess wash buffer and tapped onto paper towels. Quenching buffer (100 μL) was added to each well and the cells were incubated at ambient temperature for 20 minutes without shaking.
The cells were washed with a plate washer buffer to remove the quenching buffer. Blocking buffer (100 μL) was added and the cells were incubated at ambient temperature for at least an hour with gentle shaking.
The cells were washed with a plate washer buffer and diluted primary antibody (50 μL) was added to each well (blocking buffer was added to the negative control wells instead). The plates were incubated overnight at 4° C. with gentle shaking.
The wash buffer was removed, diluted secondary antibody (100 μL) was added, and the cells were incubated at ambient temperature for 1 hour with gentle shaking. […]

The IC50 is the concentration at which inhibition is half-maximal. Low readings indicate greater potency in that assay, high ones weaker potency in that assay. In turn, `Nc1nc(Nc2ccc(N3CCC(N4CCCC4)CC3)c(F)c2)nn1-c1ncc2c(n1)C1CCC2C1` (stereo not shown) [Compound 11, 1-(5,8-methano-5,6,7,8-tetrahydroquinazolin-2-yl)-N^3-(3-fluoro-4-(4-(pyrrolidin-1-yl)piperidin-1-yl)phenyl)-1H-1,2,4-triazole-3,5-diamine] gave an IC50 below 1000 nM.

Compound `Nc1nc(Nc2ccc(N3CCN(CC(=O)O)CC3)c(F)c2)nn1-c1cc(-c2ccccc2)c2c(n1)C1CCN2CC1` [Compound 56, 1-(1,4-ethano-8-phenyl-1,2,3,4-tetrahydro-1,5-naphthyridin-6-yl)-N^3-(3-fluoro-4-(4-carboxymethylpiperazin-1-yl)phenyl)-1H-1,2,4-triazole-3,5-diamine] yielded an IC50 below 1000 nM.

`Nc1nc(Nc2ccc(N3CCN(C4CCCCC4)CC3)c(F)c2)nn1-c1cc(-c2ccccc2)c2c(n1)C1CCN2CC1` [Compound 37, 1-(1,4-ethano-8-phenyl-1,2,3,4-tetrahydro-1,5-naphthyridin-6-yl)-N^3-(3-fluoro-4-(4-cyclohexylpiperazin-1-yl)phenyl)-1H-1,2,4-triazole-3,5-diamine] showed an IC50 below 1000 nM.

Regarding `CCOC(=O)CN1CCN(c2ccc(Nc3nc(N)n(-c4cc(-c5ccccc5)c5c(n4)C4CCN5CC4)n3)cc2F)CC1` [Compound 55, 1-(1,4-ethano-8-phenyl-1,2,3,4-tetrahydro-1,5-naphthyridin-6-yl)-N^3-(3-fluoro-4-(4-ethyloxycarbonylmethylpiperazin-1-yl)phenyl)-1H-1,2,4-triazole-3,5-diamine], the IC50 is below 1000 nM.

`CN(C)C1CCN(c2ccc(Nc3nc(N)n(-c4cc(-c5cccs5)c5c(n4)C4CCC5C4)n3)cc2F)CC1` (stereo not shown) [Compound 54, 1-(5,8-methano-4-thiophen-2-yl-5,6,7,8-tetrahydroquinoline-2-yl)-N^3-(3-fluoro-4-(4-dimethylaminopiperidin-1-yl)phenyl)-1H-1,2,4-triazole-3,5-diamine] came in with a 50% inhibitory concentration (IC50) below 1000 nM.

On to `Nc1nc(Nc2ccc3c(c2)CCC(=O)CC3)nn1-c1cc(-c2ccccc2)c2c(n1)C1CCN2CC1` [Compound 69, 1-(1,4-ethano-8-phenyl-1,2,3,4-tetrahydro-1,5-naphthyridin-6-yl)-N^3-(7-oxo-6,7,8,9-tetrahydro-5H-benzo[7]annulene-3-yl)-1H-1,2,4-triazole-3,5-diamine], for which the IC50 was in the range of 1000 to 10000 nM.

Take `CN1CCN(c2ccc(Nc3nc(N)n(-c4ncnc5c4C4CCC5C4)n3)cc2)CC1` (stereo not shown) [Compound 20, 1-(5,8-methano-5,6,7,8-tetrahydroquinazolin-4-yl)-N^3-(4-(4-methylpiperazin-1-yl)phenyl)-1H-1,2,4-triazole-3,5-diamine]: the IC50 was below 1000 nM.

As for `Nc1nc(Nc2ccc(N3CCC(N4CCCC4)CC3)nc2)nn1-c1cc(-c2ccccc2)c2c(n1)C1CCN2CC1` [Compound 29, 1-(1,4-ethano-8-phenyl-1,2,3,4-tetrahydro-1,5-naphthyridin-6-yl)-N^3-(2-(4-(pyrrolidin-1-yl)piperidin-1-yl)pyridine-5-yl)-1H-1,2,4-triazole-3,5-diamine], the IC50 is below 1000 nM.

As for `Nc1nc(Nc2ccc(OCCN3CCCC3)cc2)nn1-c1ncc2c(n1)C1CCC2C1` (stereo not shown) [Compound 1, 1-(5,8-methano-5,6,7,8-tetrahydroquinazolin-2-yl)-N^3-(4-(2-(pyrrolidin-1-yl)ethoxy)phenyl)-1H-1,2,4-triazole-3,5-diamine], the IC50 was above 20000 nM.

The compound `Nc1nc(Nc2ccc(N3CCC(N4CCCC4)CC3)c(F)c2)nn1-c1cc(-c2cccs2)c2c(n1)C1CCN2CC1` [Compound 30, 1-(1,4-ethano-8-thiophen-2-yl-1,2,3,4-tetrahydro-1,5-naphthyridin-6-yl)-N^3-(3-fluoro-4-(4-(pyrrolidin-1-yl)piperidin-1-yl)phenyl)-1H-1,2,4-triazole-3,5-diamine] displayed an IC50 below 1000 nM.

On to `Nc1nc(Nc2ccc(N3CCN(CC4CC4)[C@H](C(=O)O)C3)c(F)c2)nn1-c1cc(-c2ccccc2)c2c(n1)C1CCN2CC1` [Compound 66, 1-(1,4-ethano-8-phenyl-1,2,3,4-tetrahydro-1,5-naphthyridin-6-yl)-N^3-(3-fluoro-4-((3S)-3-carboxy-4-cyclopropylmethylpiperazin-1-yl)phenyl)-1H-1,2,4-triazole-3,5-diamine], for which the IC50 was below 1000 nM.

Compound “1-((6R,8R)-6,8-dimethylmethano-5,6,7,8-tetrahydroquinoline-2-yl)-N^3-(3-fluoro-4-(4-(pyrrolidin-1-yl)piperidin-1-yl)phenyl)-1H-1,2,4-triazole-3,5-diamine [Compound 34]” gave an IC50 below 1000 nM.

Regarding `CN1CCC(c2ccc(Nc3nc(N)n(-c4cc(-c5ccccc5)c5c(n4)C4CCN5CC4)n3)cc2)CC1` [Compound 67, 1-(1,4-ethano-8-phenyl-1,2,3,4-tetrahydro-1,5-naphthyridin-6-yl)-N^3-(4-(1-methylpiperidin-4-yl)phenyl)-1H-1,2,4-triazole-3,5-diamine], the IC50 is below 1000 nM.

In the case of `Cc1csc2c(-n3nc(Nc4cnc5c(c4)C4CCC(C5)N4C)nc3N)ncnc12` (stereo not shown) [Compound 26, 1-(7-methylthieno[3,2-d]pyrimidin-4-yl)-N^3-(5,7-ethano-5,6,7,8-tetrahydro-6-methyl-1,6-naphthyridin-3-yl)-1H-1,2,4-triazole-3,5-diamine], the IC50 was below 1000 nM.

For the compound `Nc1nc(Nc2ccc(N3CCC(N4CCC[C@H]4C(=O)O)CC3)c(F)c2)nn1-c1cc(-c2ccccc2)c2c(n1)C1CCN2CC1` [Compound 61, 1-(1,4-ethano-8-phenyl-1,2,3,4-tetrahydro-1,5-naphthyridin-6-yl)-N^3-(3-fluoro-4-(4-((2S)-2-carboxypyrrolidin-1-yl)piperidin-1-yl)phenyl)-1H-1,2,4-triazole-3,5-diamine], the IC50 is below 1000 nM.

For `Cc1cc(Nc2nc(N)n(-c3cc(-c4ccccc4)c4c(n3)C3CCC4C3)n2)cnc1N1CCN(CC2CC2)CC1` (stereo not shown) [Compound 51, 1-(5,8-methano-4-phenyl-5,6,7,8-tetrahydroquinoline-2-yl)-N^3-(3-methyl-2-(4-cyclopropylmethylpiperazin-1-yl)pyridine-5-yl)-1H-1,2,4-triazole-3,5-diamine], the IC50 lay within 1000 to 10000 nM.
